Experimental findings from patent EP0342577B1, “Use of dihydropyridine derivatives for the prophylaxis or treatment of cerebral circulation disorders” (YOSHITOMI PHARMACEUTICAL INDUSTRIES, LTD., priority 1988, dated 1989) are described below.

Assay [1] deals with Cerebral blood flow amount. Nature of the assay: Selectivity in cerebral hyperkinemic action: cerebral blood flow amount (electromagnetic flow meter, left vertebral artery). It counts as in vivo. The conditions noted are these: dogs, intravenous; for Cerebral blood flow amount ED200: dose at which the rate of increase is 200%. The protocol:
(§1) The selectivity in cerebral hyperkinemic action was studied by examining the rates of increase in coronary blood flow amount and cerebral blood flow amount as to various dihydropyridine derivatives.
(§2) Various dihydropyridine derivatives were intravenously administered to dogs (weighing 9 - 16 kg, 4 animals per group) at a dose of 1 - 100 µg/kg body weight. At the lapse of 1, 3, 5, 10, 30, 60, 90 and 120 minutes after the intravenous administration, the coronary blood flow amount and cerebral blood flow amount were measured, and the rates of increase in the blood flow amount were estimated.
(§3) Cerebral blood flow was measured by equipping the left vertebral artery with the probe of the electromagnetic flow meter, and recorded continuously on the polygraph.
(§4) The ED200 (µg/kg body weight) indicates the dose at which the rate of increase is 200%.

The test system of assay [2] is Coronary blood flow amount. Nature of the assay: Selectivity in cerebral hyperkinemic action: coronary blood flow amount (electromagnetic flow meter, left coronary artery circumflex ramus). It counts as in vivo. Conditions: dogs, intravenous; for Coronary blood flow amount ED200: dose at which the rate of increase is 200%. The procedure:
as §1, §2
Coronary blood flow was measured by equipping the left coronary artery circumflex ramus with the probe of the electromagnetic flow meter, and recorded on the polygraph.
as §4

For assay [3], the system named is Cerebral blood flow amount. Nature of the assay: Duration time of cerebral hyperkinemic action: cerebral blood flow with the lapse of time. Also on record: unit not given here. It counts as in vivo. Conditions: dogs, intravenous, 30 µg/kg body weight. The procedure:
as §2, §3
By examining the rate of increase in cerebral blood flow by various dihydropyridine derivatives with the lapse of time, the duration of cerebral hyperkinemic action was studied.

Assay [4] has as its system both common carotid arteries-ligated rats. Nature of the assay: Inhibitory effect on symptoms of both common carotid arteries-ligated rats. It counts as in vivo, Spontaneously hypertensive rats (SHR·SR). Conditions: SHR·SR rats, oral, dose 0.1 mg/kg, given one hour before ligation; neural symptom score 0 (normal) to 4 (death) two hours after skin suture; control (None) 2.8. The procedure:
Spontaneously hypertensive rats (SHR·SR; Japan Charles River Co.) were used for the experiment (9-10 rats per group).
The compound 2-2 of the present invention was orally administered forsively to the rats at a dose of 10 ml/kg. To the control group was administered 0.3% Tween® 80 solely at a dose of 10 ml/kg. One hour later, cervical part was incised and both common carotid arteries were ligated with a suture thread almost simultaneously. Two hours after skin suture, observation was made for their neural symptom and/or death. The results are expressed in five-rank scores below.

In the case of `COC(=O)C1=C(C)NC(C)=C(C(=O)OCCc2ccc(N3CCN(C(c4ccccc4)c4ccccc4)CC3)cc2)C1c1cc(C#N)ccn1` (stereo not drawn) [Compound 1-2, 2-[p-(4-Benzhydrylpiperazino)phenyl]ethyl methyl 2,6-dimethyl-4-(4-cyano-2-pyridyl)-1,4-dihydropyridine-3,5-dicarboxylate], the “Cerebral blood flow amount Increase rate (%)” value amounted to 186% in assay [1] (dose 10 µg/kg body weight), 223% in assay [1] (dose 30 µg/kg body weight) and 385% in assay [1] (dose 100 µg/kg body weight). For the same molecule, the “Cerebral blood flow amount ED200” value in assay [1] turned out to be 15 µg/kg body weight. Besides, the “Coronary blood flow amount Increase rate (%)” value in assay [2] (dose 10 µg/kg body weight) is 131%; in assay [2] (dose 30 µg/kg body weight) it was 156%; in assay [2] (dose 100 µg/kg body weight) it was 246%. For the same molecule, in assay [2], the “Coronary blood flow amount ED200” value stood at 48 µg/kg body weight. Further, the “Rate of increase in cerebral blood flow amount” value (“Rate of increase” below) is 183 in assay [3] (5 min after administration); 222 in assay [3] (10 min after administration); 190 in assay [3] (30 min after administration); 151 in assay [3] (60 min after administration); 132 in assay [3] (120 min after administration).
For `COC(=O)C1=C(C)NC(C)=C(C(=O)OCCc2ccc(N3CCN(C(c4ccccc4)c4ccccc4)CC3)cc2)C1c1cccc([N+](=O)[O-])c1` (stereo not drawn) [Compound 2-2, 2-[p-(4-Benzhydrylpiperazino)phenyl]ethyl methyl 2,6-dimethyl-4-(3-nitrophenyl)-1,4-dihydropyridine-3,5-dicarboxylate], the entries for the “Cerebral blood flow amount Increase rate (%)” value in assay [1] (dose 10 µg/kg body weight), in assay [1] (dose 30 µg/kg body weight) and in assay [1] (dose 100 µg/kg body weight) were 197%, 301% and 433%, respectively. Moreover, in assay [1], the “Cerebral blood flow amount ED200” value came to 11 µg/kg body weight. In addition, the “Coronary blood flow amount Increase rate (%)” value in assay [2] (dose 10 µg/kg body weight) came to 125%; in assay [2] (dose 30 µg/kg body weight) it was 174%; in assay [2] (dose 100 µg/kg body weight), 207%. Moreover, the “Coronary blood flow amount ED200” value in assay [2] turned out to be 75 µg/kg body weight. Besides, the “Rate of increase” value stood at 137 in assay [3] (5 min after administration); 170 in assay [3] (10 min after administration); 285 in assay [3] (30 min after administration); 300 in assay [3] (60 min after administration); 237 in assay [3] (120 min after administration). Further, the Average score in assay [4] is 1.7.
In the case of `COCCOC(=O)C1=C(C)NC(C)=C(C(=O)OC(C)C)C1c1cccc([N+](=O)[O-])c1` (stereo not drawn) [Nimodipine, reference compound], the “Cerebral blood flow amount Increase rate (%)” value in assay [1] (dose 1 µg/kg body weight) is listed as 146%; in assay [1] (dose 3 µg/kg body weight), 167%; in assay [1] (dose 10 µg/kg body weight), 196%. Besides, in assay [1], the “Cerebral blood flow amount ED200” value stood at 13 µg/kg body weight. Also, the “Coronary blood flow amount Increase rate (%)” value in assay [2] (dose 1 µg/kg body weight) was 125%; in assay [2] (dose 3 µg/kg body weight), 141%; in assay [2] (dose 10 µg/kg body weight), 191%. In assay [2], the “Coronary blood flow amount ED200” value was found to be 16 µg/kg body weight. For the same molecule, the “Rate of increase” value was found to be 163 in assay [3] (5 min after administration), 152 in assay [3] (10 min after administration), 129 in assay [3] (30 min after administration) and 113 in assay [3] (60 min after administration).
For `COC(=O)C1=C(C)NC(C)=C(C(=O)OCCN(C)Cc2ccccc2)C1c1cccc([N+](=O)[O-])c1` (stereo not drawn) [Nicardipine, reference compound], the entries for the “Cerebral blood flow amount Increase rate (%)” value in assay [1] (dose 3 µg/kg body weight), in assay [1] (dose 10 µg/kg body weight) and in assay [1] (dose 30 µg/kg body weight) were 165%, 197% and 238%, respectively. In addition, the “Cerebral blood flow amount ED200” value in assay [1] amounted to 9.7 µg/kg body weight. Besides, the “Coronary blood flow amount Increase rate (%)” value in assay [2] (dose 3 µg/kg body weight) stood at 154%; in assay [2] (dose 10 µg/kg body weight) it was 206%; in assay [2] (dose 30 µg/kg body weight), 240%. In assay [2], the “Coronary blood flow amount ED200” value amounted to 9.7 µg/kg body weight. Moreover, the “Rate of increase” value in assay [3] (5 min after administration) turned out to be 237; in assay [3] (10 min after administration) it was 189; in assay [3] (30 min after administration), 129; in assay [3] (60 min after administration) it was 109.
